Measurements published in paper PMC8888134, “Characterization of UDP-glycosyltransferase family members reveals how major flavonoid glycoside accumulates in the roots of Scutellaria baicalensis” (BMC Genomics, 2022).

How the values were obtained:
Test in all cases: HPLC product quantification, Eadie-Hofstee plot
Format in all cases: biochemical, Scutellaria baicalensis
Conditions in all cases: UDP-Glc as donor; 100 mM Tris-HCl pH 7.0, 37 °C, 10 min; baicalein 0.5-200 μM
SbUGT1 = test system: T1, SbUGT1
T1 construct: full-length ORF (de novo synthesized) in pYesdest17, E. coli Rosetta (DE3), Ni-NTA purified
Source text: HPLC product quantification, Eadie-Hofstee plot on SbUGT1

SbUGT2 = test system: T2, SbUGT2
T2 construct: full-length ORF (RT-PCR) in pYesdest17, E. coli Rosetta (DE3), Ni-NTA purified
Source text: HPLC product quantification, Eadie-Hofstee plot on SbUGT2

SbUGT3 = test system: T3, SbUGT3
T3 construct: full-length ORF (RT-PCR) in pYesdest17, E. coli Rosetta (DE3), Ni-NTA purified
Source text: HPLC product quantification, Eadie-Hofstee plot on SbUGT3

Km (SbUGT1): 3.14 µM
Km (SbUGT2): 101 µM
Km (SbUGT3): 2.67 µM
Compound: O=c1cc(-c2ccccc2)oc2cc(O)c(O)c(O)c12 [baicalein]
